Assay [1] deals with T1, Muscarinic acetylcholine receptor M1 (Homo sapiens, UniProt P11229).
T1 sequence (P11229 whole entry): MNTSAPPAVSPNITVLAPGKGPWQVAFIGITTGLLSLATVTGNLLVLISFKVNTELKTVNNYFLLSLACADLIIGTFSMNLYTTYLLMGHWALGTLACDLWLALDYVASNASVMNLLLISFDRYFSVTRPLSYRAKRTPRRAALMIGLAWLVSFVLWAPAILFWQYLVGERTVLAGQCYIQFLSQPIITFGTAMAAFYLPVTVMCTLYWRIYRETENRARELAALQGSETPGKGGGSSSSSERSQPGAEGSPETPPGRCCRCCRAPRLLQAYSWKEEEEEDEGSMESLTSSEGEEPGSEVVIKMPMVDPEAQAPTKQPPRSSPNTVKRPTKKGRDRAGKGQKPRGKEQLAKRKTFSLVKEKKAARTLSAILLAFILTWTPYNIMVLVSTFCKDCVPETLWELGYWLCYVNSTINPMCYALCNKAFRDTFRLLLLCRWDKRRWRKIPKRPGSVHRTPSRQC
Nature of the assay: Positive allosteric modulation of human wild type M1 receptor assessed as increase in acetylcholine-induced calcium flux by FLIPR assay. It is filed as functional. In general terms: Calcium flux is commonly read through the fluorescence of an indicator in the cells.

For assay [2], the target named is T2, Muscarinic acetylcholine receptor M1 (Homo sapiens) (UniProt P11229).
T2 sequence (whole entry): T1 sequence (P11229 whole entry)
Nature of the assay: Positive allosteric modulation of human wild type M1 receptor assessed as increase in acetylcholine-induced calcium flux by FLIPR assay relative to acetylcholine. It is filed as functional.

What is called EC50 is the concentration at which the effect is half-maximal. As to `CC(C)[C@@H]1N=C(N2CCCCC2)c2cc(Cl)ccc2NC1=S`, the concentration for a half-maximal effect (EC50) in assay [1] was greater than 10000 nM.
For orientation: Emax means the maximal effect, on the per cent scale that the assay sets. As for `Fc1ccccc1C1=N[C@@H](C2CC2)C(=S)Nc2ccc(Cl)cc21`, in assay [1], the EC50 is 165 nM. In addition, the Emax in assay [2] worked out at 79%.
In the case of `CC(C)C1C(=S)Nc2ccc(Cl)cc2C(c2ccccc2)=[N+]1[O-]` (stereo unspecified), in assay [1], the EC50 came to 349 nM. The maximal response (Emax) in assay [2] was 112%.
The like results for `Cc1ccc2c(c1)C(c1ccccc1)=NC(C(C)C)C(=S)N2` (stereo unspecified) were, in that order, 62 nM and 129%.
Regarding `CCC1N=C(c2ccccc2)c2cc(N)ccc2NC1=S` (stereo unspecified), the EC50 in assay [1] is greater than 10000 nM.
Take `CCC[C@@H]1N=C(c2ccccc2)c2cc(Cl)ccc2NC1=S`: the EC50 in assay [1] was found to be 238 nM. The maximum response (Emax) in assay [2] was found to be 129%.
Take `Fc1ccccc1C1=NCC(=S)Nc2ccc(Cl)cc21`: the EC50 in assay [1] turned out to be 317 nM. Further, in assay [2], the maximum response (Emax) is 95%.
Taken in the same sequence, the figures for `CC(=O)OC1C=C(c2ccccc2F)c2cc(Cl)ccc2NC1=S` (stereo unspecified) were 649 nM and 92%.
Taken in the same sequence, the figures for `C[C@@H]1N=C(c2ccccc2)c2cc(Cl)ccc2NC1=S` were 103 nM and 67%.
The like results for `CC(C)[C@@H]1N=C(c2ccccc2)c2ccc(Cl)cc2NC1=S` were, in that order, 399 nM and 117%.
For the compound `CSc1ccc2c(c1)C(c1ccccc1)=NCC(=S)N2`, the EC50 in assay [1] is 870 nM. The maximum response (Emax) in assay [2] amounted to 71%.
With `CC(=O)c1ccc2c(c1)C(c1ccccc1)=NC(C)C(=S)N2` (stereo unspecified), in assay [1], the EC50 was greater than 10000 nM.
Same read-out and setting: in the case of `CC(C)=C1N=C(c2ccccc2)c2cc(Cl)ccc2NC1=S` it was greater than 10000 nM.
Turning to `O=[N+]([O-])c1ccc2c(c1)C(c1ccccc1)=NCC(=S)N2`, the EC50 in assay [1] worked out at 4480 nM. The Emax in assay [2] worked out at 40%.
For `S=C1COC(c2ccccc2)c2cc(Cl)ccc2N1` (stereo unspecified), the EC50 in assay [1] is greater than 10000 nM.
Same read-out and setting: in the case of `Fc1ccccc1C1=NCC(=S)Nc2ccccc21` it was greater than 10000 nM.
Turning to `FC(F)(F)C[C@@H]1N=C(c2ccccc2)c2cc(Cl)ccc2NC1=S`, in assay [1], the EC50 was 311 nM. For the same compound, the Emax in assay [2] came out at 74%.
On to `Fc1ccccc1C1=CCC(=S)Nc2ccc(Cl)cc21`, for which the EC50 in assay [1] worked out at 317 nM. Besides, in assay [2], the maximum response (Emax) came out at 95%.
In the case of `CCCC1=N[C@@H](C(C)C)C(=S)Nc2ccc(Cl)cc21`, in assay [1], the EC50 is greater than 10000 nM.
On to `Fc1ccccc1C1=N[C@@H](c2ccccc2)C(=S)Nc2ccc(Cl)cc21`, for which the half-maximal effective concentration (EC50) in assay [1] stood at 1470 nM. In addition, the maximal response (Emax) in assay [2] stood at 75%.
The like results for `CC(C)[C@@H]1N=C(c2ccccc2)c2cc(-c3ccccc3)ccc2NC1=S` were, in that order, 1470 nM and 108%.
The like results for `FC(F)(F)c1ccc2c(c1)C(c1ccccc1)=NCC(=S)N2` were, in that order, 516 nM and 92%.
The like results for `CC(C)C1C(=O)N(c2ccccc2)c2cc(Cl)ccc2NC1=S` (stereo unspecified) were, in that order, 267 nM and 93%.
Regarding `S=C1CC(c2ccccc2)=Nc2cc(Cl)ccc2N1`, the 50% effective concentration (EC50) in assay [1] was greater than 10000 nM.
On the same count and under the same terms, in the case of `S=C1CN=C(c2ccccc2)c2ccccc2N1` it was greater than 10000 nM; in that of `CC(C)C[C@@H]1N=C(c2ccccc2Cl)c2cc(Cl)ccc2NC1=S`, greater than 10000 nM.
On the same count and under the same terms, in the case of `S=C1Cc2ccccc2-c2cc(Cl)ccc2N1` it was greater than 10000 nM; in that of `CCC[C@]1(C)N=C(c2ccccc2)c2cc(Cl)ccc2NC1=S`, 104 nM; in that of `S=C1Nc2ccc(Cl)cc2C(c2ccccc2)=NC1n1ccnc1` (racemic), greater than 10000 nM.
Regarding `CC(C)[C@@H]1N=C(c2ccc(C(F)(F)F)cc2)c2cc(Cl)ccc2NC1=S`, in assay [1], the EC50 is greater than 10000 nM.
Still for that read-out and setting: in the case of `Fc1ccccc1C1=N[C@H](c2ccccc2)C(=S)Nc2ccc(Cl)cc21` it was greater than 10000 nM; in that of `CCOC(=O)C1N=C(c2ccccc2)c2cc(Cl)ccc2NC1=S` (racemic), greater than 10000 nM.
On to `CN1C(=S)CN=C(c2ccccc2)c2cc(Cl)ccc21` [SULAZEPAM], for which the EC50 in assay [1] is greater than 10000 nM.
As to `CCOC1N=C(c2ccccc2)c2cc(Cl)ccc2NC1=S` (racemic), in assay [1], the EC50 was greater than 10000 nM.
As for `CCC[C@@]1(C)N=C(c2ccccc2)c2cc(Cl)ccc2NC1=S`, the concentration giving a half-maximal response (EC50) in assay [1] was greater than 10000 nM.

The record behind these values is ChEMBL document CHEMBL4177694, “Discovery of the first low-shift positive allosteric modulators for the muscarinic M1 receptor” (Bioorg Med Chem Lett, 2017).
